Experimental data taken from patent publication US8044057B2, “Methods for suppressing an immune response or treating a proliferative disorder” (The United States of America as represented by the …, priority 2003, dated 2011).

What was measured:
PC-3 cells = assay: PC-3 prostate adenocarcinoma tumor growth in nude mice; type: in vivo, mouse
Protocol: FIG. 6A-6B are bar graphs showing that LY303511 inhibits the growth of prostate adenocarcinoma cells (PC-3) cells in nude mice. LY303511, 10 mg/kg/d was administered intraperitoneally to attenuate PC-3 tumor growth in nude mice. The degree of growth inhibition was proportional to the duration of treatment with LY303511. […] FIG. 6C is a graph of a Kaplan-Mieir survival analysis. The analysis includes the premise that an event happens when a tumor reaches 300 mm^3. The y-axis depicts the probability that tumor size is less than 300 mm^3.
The effect of LY303511 on tumor growth was assessed in vivo. Human prostate adenocarcinoma cells (PC-3 cells, ATCC No. CTL-1435) were culture in vitro 5 before harvesting and implantation. For each mouse, 1×10^6 cells in 20% Matrigel™ (matrix) were implanted by subcutaneous injection into the flank. Mice were subdivided into six groups of ten mice each. Treatment protocols were begun (Day 1) when tumors reached approximately 150 mm^3, and tumor volumes (=Caliper length×width^2/2) were measured for thirty days at the indicated time points. Data were expressed as the average tumor volume +/− SEM for each treatment group and time point. The data is shown both in FIG. 6A and 6B. (*p<0.05 by one way ANOVA for inter-group comparisons at each time point. FIG. 6C is a Kaplan-meier analysis, representing the probability that tumor volumes are less than 300 mm^3 at any given time point (p<0.001 by log-rank test for inter-group comparison).

PASM cells = assay: Propidium iodide flow cytometry cell cycle analysis in PASM cells; type: cell-based, human; settings: 24 hours
Protocol: FIGS. 5A-5B are bar graphs showing that LY303511 inhibits the cell cycle by causing combined G1 and G2/M arrest and that LY303511 inhibits CK2 activity. For the data shown in FIG. 5A, PASM cells were cultured in medium with FBS for 48 hours before the addition of 0-100 μM LY303511 without or with raparnycin, 400 ng/ml, for 24 hours. Cells were then harvested and incubated with propidium iodide for 2 hours before counting using a Becton-Dickson FACSCalibur. Data are the means (±SEM) of percentages of cells in G1, S, or G2/M phase of the cell cycle in three experiments with duplicate assays. *p<0.05 vs. DMSO control, or †p<0.05 vs. 10 μM LY303511, by Student's t—test. FIG. 5B is a bar graph showing that LY303511 or LY294002 inhibits CK2 in vitro. […] Data are the means of values for samples with inhibitors expressed as percentage of that for control, which was (mean±SEM) 0.2±0.03 pmol phosphate/100 ng protein/10 min. […]
In order to investigate the effect of LY303511 on the cell cycle, A549 cells or pulmonary artery smooth muscle cells were grown to sub-confluence in serum-containing media, and incubated with vehicle, 10, or 100 mcM LY303511, without or with Rapamycin (200 ng/ml), for 24 hours. […] The proportion of cells in G1, S, or G2/M phase of the cell cycle for each experimental condition was determined. […]

O=c1cc(N2CCNCC2)oc2c(-c3ccccc3)cccc12 [LY303511, 2-(4-piperazinyl)-8-phenyl-4H-1-benzopyran-4-one]
degree of growth inhibition versus duration of treatment (PC-3 cells; 10 mg/kg daily for 5, 10 or 20 days): direct proportional to the duration of treatment | tumor growth inhibition, 20 day course versus ten day course (PC-3 cells; 10 mg/kg daily, FIG. 6C): as effective at inhibiting tumor growth as a ten day course | PC-3 tumor growth (PC-3 cells; 10 mg/kg intraperitoneally daily): inhibited the growth of prostate adenocarcinoma cells | tumor burden (PC-3 cells; LY303511 10 mg/kg daily, Doxorubicin 10 mg/kg once on Day 1): decrease tumor burden | G1 phase cells (G1 arrest) (PASM cells): negligible | proportion of cells in S phase (PASM cells): reduced the proportion of cells in S phase
